Entries after “also recorded” stand apart in the source; their conditions may differ. Bridge positions count the residues as written; N and C are the ends. Ends that are not written are not given here.
How the values were obtained:
[1] = system: polarized Calu-3 cell monolayers; test: Transepithelial electrical resistance (TEER) assay on polarized Calu-3 cell monolayers; type: cell-based, human; details: peptide 250 μM added to apical and basolateral compartment; peak TEER value as percent of Tip peptide (=100%)
[2] = system: isolated blood perfused flooded rat lung (E. coli-LPS induced lung edema); test: Endotoxin induced lung injury in the isolated blood perfused flooded rat lung model; type: in vivo, male Spraque-Dawley rats; details: P5 3 mg or P9 10 mg in 1 ml saline i.t.; for Attenuation of LPS-induced total lung weight gain / lung edema production: LPS 3 mg/kg i.t., 18 h, 2-h ex-vivo reperfusion; for Inspiratory resistive work / Static and dynamic lung compliance: LPS-treated lungs; for Inspiratory resistive work / Static and dynamic lung compliance / Effect on lung wet/dry weight ratio: 2-h reperfusion; for Effect on lung wet/dry weight ratio: versus LPS+saline treated lungs
Description: In the “Endotoxin induced lung injury in the isolated blood perfused flooded rat lung model”, which is an ex vivo permeability lung edema model, E. coli-LPS is instilled intratracheally and after […] the lung is isolated and placed in an artificial thorax chamber. Then, perfusion occurs with autolo-gous blood. After an one hour stabilisation period, the test compound (in 1 ml saline) is instilled intratra-cheally. Lung parameters are measured over 2 hours. The main read-outs are lung-weight and parameters of lung mechanics and hemodynamics.
In the “Endotoxin induced lung injury in the isolated blood perfused flooded rat lung model”, which is an ex vivo permeability lung edema model, E. coli-LPS is instilled intratracheally and after […] the lung is isolated and placed in an artificial thorax chamber. Then, perfusion occurs with autologous blood. After an one hour stabilisation period, the test compound (in 1 ml saline) is instilled intratracheally. Lung parameters are measured over 2 hours. The primary readout parameters of this […] model are wet weight of lung and heart and P/V curves which are parameters of lung mechanics and hemodynamics.
In this ex vivo lung edema model, E. coli-LPS (3 mg/kg) was instilled intratracheally into male Spraque-Dawley rats. After 18 h the lung was isolated and placed in an artificial thorax chamber. Then, perfusion occurred with autologous blood. After one hour stabilisation period, the test compound (in 1 ml saline) was instilled intratracheally. Lung parameters were measured over 2 h. The main read-outs were lung-weight and parameters of lung mechanics and hemodynamics. • Number of rats: n=7-8 per group • Data are means±SEM • Treatment groups:
? P9 • Perfusion conditions: • imposed pulmonary artery perfusion pressure: 20 mmHg • imposed left atrial pressure: 10 mmHg • resulting pulmonary blood flow: ˜6-9 ml/min • resulting pulmonary microvascular pressure: ˜14.5 mmHg • imposed tidal volume: 7 ml/kg; respiratory rate: 30 bpm • imposed positive end-expiratory airway pressure: 3.0 cmH2O-arterial pH: 7.5 • adjusted hematocrit: 28% (autologous blood)

rat lung = details: ex vivo and in vivo rat lung model; cited from earlier work
[3] = system: microvascular endothelial cells; details: cited from earlier work
in situ mouse lung = details: cited from earlier work

Substance: 51 (CGTPEGAETPEGAETPEGAETPEGAETPEGAEGC; anti-edema peptide) [compound 51]
- Activity in TEER assay (c = 250 μM) (% of Tip activity) [1]: 146.6 % of Tip activity

Substance: 55 (CGSPEGGDGGGGGSPEGGDGGGGGSPEGGDGC; anti-edema peptide) [compound 55]
- Activity in TEER assay (c = 250 μM) (% of Tip activity) [1]: 146.0 % of Tip activity

Substance: 45 (CGQRETPDGADAKPWYC; anti-edema peptide) [compound 45]
- Activity in TEER assay (c = 250 μM) (% of Tip activity) [1]: 172.4 % of Tip activity

Substance: 11 (TPEGAEGGGGGTPEGAEGGGGGTPEGAE; anti-edema peptide) [compound 11]
- Activity in TEER assay (c = 250 μM) (% of Tip activity) [1]: 80.0 % of Tip activity

Substance: 42 (CGQRESPDGGDAKPWYC; anti-edema peptide) [compound 42]
- Activity in TEER assay (c = 250 μM) (% of Tip activity) [1]: 123.6 % of Tip activity

Substance: 50 (CGGGGGTPEGAEGGGGGTPEGAEGGGGGTPEGAEGC; anti-edema peptide) [compound 50]
- Activity in TEER assay (c = 250 μM) (% of Tip activity) [1]: 156.5 % of Tip activity

Substance: 40 (CGQRESPDGADAKPWYC; anti-edema peptide) [compound 40]
- Activity in TEER assay (c = 250 μM) (% of Tip activity) [1]: 127.7 % of Tip activity

Substance: 39 (CGQRESPDGAEAKPWYC; anti-edema peptide) [compound 39]
- Activity in TEER assay (c = 250 μM) (% of Tip activity) [1]: 88.8 % of Tip activity

Substance: SPEGGEGGGGGSPEGGEGGGGGSPEGGE (anti-edema peptide) [SEQ ID NO: 52]
- Attenuation of LPS-induced total lung weight gain / lung edema production ([2]; listed as P9): attenuating the LPS-induced total lung weight gain
- Inspiratory resistive work [2]: especially reduces
- Static and dynamic lung compliance [2]: markedly ameliorates
- Effect on lung wet/dry weight ratio [2]: less pronounced

Substance: 46 (CGQRETPDGAEAKPWYC; anti-edema peptide) [compound 46]
- Activity in TEER assay (c = 250 μM) (% of Tip activity) [1]: 130.4 % of Tip activity

Substance: 35 (CGQRESPEGAEAKPWYC; anti-edema peptide) [compound 35]
- Activity in TEER assay (c = 250 μM) (% of Tip activity) [1]: 120.9 % of Tip activity

Substance: 54 (SPEGGDGGGGGSPEGGDGGGGGSPEGGD; anti-edema peptide) [compound 54]
- Activity in TEER assay (c = 250 μM) (% of Tip activity) [1]: 90.7 % of Tip activity

Substance: 20 (GGSPSQRETPEGAEAKPWYGGSPSQRETPEGAEAKPWYGGSPSQRETPEGAEAKPWY; anti-edema peptide) [compound 20]
- Activity in TEER assay (c = 250 μM) (% of Tip activity) [1]: 539.0 % of Tip activity

Substance: 49 (CGTPEGAETPEGAETPEGAEGC; anti-edema peptide) [compound 49]
- Activity in TEER assay (c = 250 μM) (% of Tip activity) [1]: 139.9 % of Tip activity

Substance: 5 (TPEGAETPEGAETPEGAETPEGAETPEGAE; anti-edema peptide) [compound 5]
- Activity in TEER assay (c = 250 μM) (% of Tip activity) [1]: 93.0 % of Tip activity

Substance: CGSPEGGDSPEGGDSPEGGDGC (anti-edema peptide) [Peptide P5]
- Attenuation of LPS-induced total lung weight gain / lung edema production [2]: significantly attenuate; also recorded: attenuating the LPS-induced total lung weight gain
- Inspiratory resistive work [2]: especially reduces
- Static and dynamic lung compliance [2]: markedly ameliorates
- Effect on lung wet/dry weight ratio [2]: statistically significantly different from LPS+saline treated lungs

Substance: 53 (CGSPEGGEGGGGGSPEGGEGGGGGSPEGGEGC; anti-edema peptide) [compound 53]
- Activity in TEER assay (c = 250 μM) (% of Tip activity) [1]: 131.7 % of Tip activity

Substance: 43 (CGQRETPEGADAKPWYC; anti-edema peptide) [compound 43]
- Activity in TEER assay (c = 250 μM) (% of Tip activity) [1]: 139.8 % of Tip activity

Substance: 52 (SPEGGEGGGGGSPEGGEGGGGGSPEGGE; anti-edema peptide) [compound 52]
- Activity in TEER assay (c = 250 μM) (% of Tip activity) [1]: 87.1 % of Tip activity

Substance: 36 (CGQRESPEGADAKPWYC; anti-edema peptide) [compound 36]
- Activity in TEER assay (c = 250 μM) (% of Tip activity) [1]: 119.4 % of Tip activity

Substance: CGQRETPEGAEAKPWYC [SEQ ID NO: 61]
- Alveolar fluid reabsorption (rat lung): up-regulated
- Membrane conductance [3]: increased
- Alveolar fluid reabsorption (in situ mouse lung): up-regulated

Substance: 2 (CGTKPIELGPDEPKAVC; disulfide 1-17 (inferred)) [compound 2]
- Activity in TEER assay (c = 250 μM) (% of Tip activity) [1]: 130.1 % of Tip activity
